From the supplement of paper PMC10307832

Legend:
Test in all cases: relative viability (nuclei count vs DMSO), 5 days (fraction); higher = more cells survive
Bosutinib + Crizotinib = compound: COc1cc(Nc2c(C#N)cnc3cc(OCCCN4CCN(C)CC4)c(OC)cc23)c(Cl)cc1Cl [Bosutinib] + C[C@@H](Oc1cc(-c2cnn(C3CCNCC3)c2)cnc1N)c1c(Cl)ccc(F)c1Cl [Crizotinib] (partner 1 µM)
Procedure, shortened: (§1)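 Lung cancer cell lines, seeded in 1536-well plates, were treated the following day by pin tool with a single drug or with five library-drug doses (not always all listed) in √10 steps on top of a fixed anchor-drug dose. Cells were fixed and nuclei stained in one step after 5 days, and nuclei were counted. Relative viability is the nuclei count for treated wells divided by that for vehicle wells, reported as medians of duplicate plates.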

Bosutinib + Pictilisib = compound: COc1cc(Nc2c(C#N)cnc3cc(OCCCN4CCN(C)CC4)c(OC)cc23)c(Cl)cc1Cl [Bosutinib] + CS(=O)(=O)N1CCN(Cc2cc3nc(-c4cccc5[nH]ncc45)nc(N4CCOCC4)c3s2)CC1 [Pictilisib] (partner 1 µM)
Procedure, shortened: as §1

Bosutinib + Alpelisib = compound: COc1cc(Nc2c(C#N)cnc3cc(OCCCN4CCN(C)CC4)c(OC)cc23)c(Cl)cc1Cl [Bosutinib] + Cc1nc(NC(=O)N2CCC[C@H]2C(N)=O)sc1-c1ccnc(C(C)(C)C(F)(F)F)c1 [Alpelisib] (partner 2 µM)
Procedure, shortened: as §1

Bosutinib + Olaparib = compound: COc1cc(Nc2c(C#N)cnc3cc(OCCCN4CCN(C)CC4)c(OC)cc23)c(Cl)cc1Cl [Bosutinib] + O=C(c1cc(Cc2n[nH]c(=O)c3ccccc23)ccc1F)N1CCN(C(=O)C2CC2)CC1 [Olaparib] (partner 8 µM)
Procedure, shortened: as §1

Bosutinib + Linsitinib = compound: COc1cc(Nc2c(C#N)cnc3cc(OCCCN4CCN(C)CC4)c(OC)cc23)c(Cl)cc1Cl [Bosutinib] + C[C@]1(O)C[C@@H](c2nc(-c3ccc4ccc(-c5ccccc5)nc4c3)c3c(N)nccn32)C1 [Linsitinib] (partner 1 µM)
Procedure, shortened: as §1

Bosutinib + Lapatinib = compound: COc1cc(Nc2c(C#N)cnc3cc(OCCCN4CCN(C)CC4)c(OC)cc23)c(Cl)cc1Cl [Bosutinib] + CS(=O)(=O)CCNCc1ccc(-c2ccc3ncnc(Nc4ccc(OCc5cccc(F)c5)c(Cl)c4)c3c2)o1 [Lapatinib] (partner 2 µM)
Procedure, shortened: as §1

Bosutinib + Bortezomib = compound: COc1cc(Nc2c(C#N)cnc3cc(OCCCN4CCN(C)CC4)c(OC)cc23)c(Cl)cc1Cl [Bosutinib] + CC(C)C[C@H](NC(=O)[C@H](Cc1ccccc1)NC(=O)c1cnccn1)B(O)O [Bortezomib] (partner 0.002 µM)
Procedure, shortened: as §1

Bosutinib + Foretinib = compound: COc1cc(Nc2c(C#N)cnc3cc(OCCCN4CCN(C)CC4)c(OC)cc23)c(Cl)cc1Cl [Bosutinib] + COc1cc2c(Oc3ccc(NC(=O)C4(C(=O)Nc5ccc(F)cc5)CC4)cc3F)ccnc2cc1OCCCN1CCOCC1 [Foretinib] (partner 0.25 µM)
Procedure, shortened: as §1

Bosutinib + Navitoclax = compound: COc1cc(Nc2c(C#N)cnc3cc(OCCCN4CCN(C)CC4)c(OC)cc23)c(Cl)cc1Cl [Bosutinib] + CC1(C)CCC(c2ccc(Cl)cc2)=C(CN2CCN(c3ccc(C(=O)NS(=O)(=O)c4ccc(N[C@H](CCN5CCOCC5)CSc5ccccc5)c(S(=O)(=O)C(F)(F)F)c4)cc3)CC2)C1 [Navitoclax] (partner 0.5 µM)
Procedure, shortened: as §1

Bosutinib = compound: COc1cc(Nc2c(C#N)cnc3cc(OCCCN4CCN(C)CC4)c(OC)cc23)c(Cl)cc1Cl [Bosutinib]
Procedure, shortened: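 Acceptance criteria were a control CV below 25% and at least one doubling per plate. Lung cancer cell lines in 1536-well plates got five library-drug doses (not always all listed) √10 apart by pinning and were left 5 days with no medium change. Viability divides treated-well nuclei by vehicle-well nuclei and is the median across plates. Nuclei were counted by MetaXpress from 4× Hoechst images.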

Cell Line | relative viability (Bosutinib + Crizotinib; first compound 0.01 µM) | relative viability (Bosutinib + Crizotinib; first compound 0.03162 µM) | relative viability (Bosutinib + Crizotinib; first compound 0.1 µM) | relative viability (Bosutinib + Crizotinib; first compound 1 µM) | relative viability (Bosutinib + Pictilisib; first compound 0.01 µM) | relative viability (Bosutinib + Pictilisib; first compound 0.03162 µM) | relative viability (Bosutinib + Pictilisib; first compound 0.1 µM) | relative viability (Bosutinib + Pictilisib; first compound 1 µM) | relative viability (Bosutinib + Alpelisib; first compound 0.01 µM) | relative viability (Bosutinib + Alpelisib; first compound 0.03162 µM) | relative viability (Bosutinib + Alpelisib; first compound 0.1 µM) | relative viability (Bosutinib + Alpelisib; first compound 1 µM) | relative viability (Bosutinib + Olaparib; first compound 0.01 µM) | relative viability (Bosutinib + Olaparib; first compound 0.03162 µM) | relative viability (Bosutinib + Olaparib; first compound 0.1 µM) | relative viability (Bosutinib + Olaparib; first compound 1 µM) | relative viability (Bosutinib + Linsitinib; first compound 0.01 µM) | relative viability (Bosutinib + Linsitinib; first compound 0.03162 µM) | relative viability (Bosutinib + Linsitinib; first compound 0.1 µM) | relative viability (Bosutinib + Linsitinib; first compound 1 µM) | relative viability (Bosutinib + Lapatinib; first compound 0.01 µM) | relative viability (Bosutinib + Lapatinib; first compound 0.03162 µM) | relative viability (Bosutinib + Lapatinib; first compound 0.1 µM) | relative viability (Bosutinib + Lapatinib; first compound 1 µM) | relative viability (Bosutinib + Bortezomib; first compound 0.01 µM) | relative viability (Bosutinib + Bortezomib; first compound 0.03162 µM) | relative viability (Bosutinib + Bortezomib; first compound 0.1 µM) | relative viability (Bosutinib + Bortezomib; first compound 1 µM) | relative viability (Bosutinib + Foretinib; first compound 0.01 µM) | relative viability (Bosutinib + Foretinib; first compound 0.03162 µM) | relative viability (Bosutinib + Foretinib; first compound 0.1 µM) | relative viability (Bosutinib + Foretinib; first compound 1 µM) | relative viability (Bosutinib + Navitoclax; first compound 0.01 µM) | relative viability (Bosutinib + Navitoclax; first compound 0.03162 µM) | relative viability (Bosutinib + Navitoclax; first compound 0.1 µM) | relative viability (Bosutinib + Navitoclax; first compound 1 µM) | relative viability (Bosutinib; 0.01 µM) | relative viability (Bosutinib; 0.03162 µM) | relative viability (Bosutinib; 0.1 µM) | relative viability (Bosutinib; 1 µM)
Calu-6 | 0.747 | 0.796 | 0.798 | 0.788 | 0.937 | 0.923 | 0.867 | 0.834 | 0.927 | 1.07 | 0.958 | 0.824 | 0.596 | 0.561 | 0.598 | 0.472 | 1.05 | 0.957 | 0.96 | 0.794 | 1.15 | 1.14 | 1.11 | 0.893 | 1.01 | 0.954 | 1.02 | 0.905 | 0.927 | 0.888 | 0.932 | 0.772 | 0.814 | 0.801 | 0.757 | 0.821 | 1.01 | 1.02 | 0.976 | 0.837
EBC-1 | 0.199 | 0.185 | 0.183 | 0.191 | 0.347 | 0.463 | 0.404 | 0.358 | 0.787 | 0.798 | 0.833 | 0.736 | 0.693 | 0.737 | 0.659 | 0.658 | 0.93 | 0.906 | 0.937 | 0.916 | 0.216 | 0.221 | 0.187 | 0.204 | 0.484 | 0.492 | 0.513 | 0.523 | 0.115 | 0.11 | 0.104 | 0.0985 | 0.393 | 0.461 | 0.519 | 0.609 | 1.05 | 0.956 | 0.984 | 0.881
